SMILES strings stand for the structures.

The subject of the assay is rhinovirus type 7 (SF1470). The assay is described as follows: Inhibition of rhinovirus cytopathogenic effect in human embryonic lung cultures, type 7. The settings on record: 50 and 75 μgm/ml. Format: cell-based. The procedure:
Other tests were carried out to determine the inhibitory effect of 3-(4-pyridyl)-4-(2-hydroxyphenyl)-5-ethylpyrazole on various types of rhinovirus.
In each test two cultures of human embryonic lung were prepared of which one was treated with the above compound while the other served as control. The cultures were then infected with a strain of rhinovirus. The compound was used in concentrations of 50 and 75 μgm/ml and was considered to be active if the cytopathogenic effect of the rhinovirus was reduced by at least 75% as compared to the control culture. This cytopathogenic effect was determined by counting the number of plaques formed by destroyed cells.
Seven human types of rhinovirus were employed and the following results registered: […]
A general note: Damage to the host cells serves as the signal in cytopathic effect assays.

Turning to `CCc1[nH]nc(-c2ccncc2)c1-c1ccccc1O` [Compound A, 3-(4-pyridyl)-4-(2-hydroxyphenyl)-5-ethylpyrazole], the ACTIVITY result is “+ (active)”.
